Source: ChEMBL document CHEMBL5154741, “Antibacterial alkylguanidino ureas: Molecular simplification approach, searching for membrane-based MoA” (Eur J Med Chem, 2022)

What was measured:
[1] = (§1) Apparent permeability of the compound across bacterial inner membrane mimic POPE/POPG (6:4) in PBS buffer at pH 7.4 incubated for 5 hrs in presence of {8-[N'(cyclopropylmethyl)carbamimidamido]octyl}urea trifluoroacetate salt by PAMPA based UV-Vis spectrophotometric analysis
[2] = (§2) Apparent permeability of the compound across bacterial inner membrane mimic PC-phospholipids in PBS buffer at pH 7.4 incubated for 5 hrs in presence of {8-[N'(cyclopropylmethyl)carbamimidamido]octyl}urea trifluoroacetate salt by PAMPA based UV-Vis spectrophotometric analysis
[3] = Apparent permeability of the compound across bacterial inner membrane mimic pure POPG in PBS buffer at pH 7.4 incubated for 5 hrs in presence of 1,1-bis({6-[N'-(cyclopropylmethyl)carbamimidamido]hexyl})-3-{8-[N'-(cyclopropylmethyl)carbamimidamido]octyl}-3-octylurea by PAMPA based UV-Vis spectrophotometric analysis
[4] = Apparent permeability of the compound across bacterial inner membrane mimic pure POPG in PBS buffer at pH 7.4 incubated for 5 hrs in presence of 1,3-bis(8-carbamimidamidooctyl)-1,3-bis({8-[N'-(cyclopropylmethyl)carbamimidamido]octyl})urea by PAMPA based UV-Vis spectrophotometric analysis
[5] = (§3) Apparent permeability of the compound across bacterial inner membrane mimic pure POPG in PBS buffer at pH 7.4 incubated for 5 hrs in presence of 1,3-bis(8-aminooctyl)-1,3-bis(8- carbamimidamidooctyl)urea trifluoroacetate salt by PAMPA based UV-Vis spectrophotometric analysis
[6] = (§4) Apparent permeability of the compound across bacterial inner membrane mimic PC-phospholipids in PBS buffer at pH 7.4 incubated for 5 hrs by PAMPA based UV-Vis spectrophotometric analysis; format: ADME
[7] = as §4, with “hrs in presence of 1,1-bis({6-[N'-(cyclopropylmethyl)carbamimidamido]hexyl})-3-{8-[N'-(cyclopropylmethyl)carbamimidamido]octyl}-3-octylurea” for “hrs”
[8] = (§5) Apparent permeability of the compound across bacterial inner membrane mimic POPE/POPG (6:4) in PBS buffer at pH 7.4 incubated for 5 hrs by PAMPA based UV-Vis spectrophotometric analysis; format: ADME
[9] = as §3, with “1,3,3-tris(8-carbamimidamidooctyl)-1-{8-[N'-(cyclopropylmethyl)carbamimidamido]octyl}urea” for “1,3-bis(8-aminooctyl)-1,3-bis(8- carbamimidamidooctyl)urea”
[10] = as §5, with “hrs in presence of 1,1-bis({6-[N'-(cyclopropylmethyl)carbamimidamido]hexyl})-3-{8-[N'-(cyclopropylmethyl)carbamimidamido]octyl}-3-octylurea” for “hrs”
[11] = Apparent permeability of the compound across bacterial inner membrane mimic POPE/POPG (6:4) in PBS buffer at pH 7.4 incubated for 5 hrs in presence of 1,3-bis(8-aminooctyl)-1,3-bis(8- carbamimidamidooctyl)urea trifluoroacetate salt by PAMPA based UV-Vis spectrophotometric analysis
[12] = as §1, with “1,3,3-tris(8-carbamimidamidooctyl)-1-{8-[N'-(cyclopropylmethyl)carbamimidamido]octyl}urea” for “{8-[N'(cyclopropylmethyl)carbamimidamido]octyl}urea”
[13] = Apparent permeability of the compound across bacterial inner membrane mimic pure POPG in PBS buffer at pH 7.4 incubated for 5 hrs by PAMPA based UV-Vis spectrophotometric analysis; format: ADME
[14] = Apparent permeability of the compound across bacterial inner membrane mimic PC-phospholipids in PBS buffer at pH 7.4 incubated for 5 hrs in presence of 1,3-bis(8-carbamimidamidooctyl)-1,3-bis({8-[N'-(cyclopropylmethyl)carbamimidamido]octyl})urea by PAMPA based UV-Vis spectrophotometric analysis
[15] = Apparent permeability of the compound across bacterial inner membrane mimic PC-phospholipids in PBS buffer at pH 7.4 incubated for 5 hrs in presence of 1,3-bis(8-aminooctyl)-1,3-bis(8- carbamimidamidooctyl)urea trifluoroacetate salt by PAMPA based UV-Vis spectrophotometric analysis
[16] = Apparent permeability of the compound across bacterial inner membrane mimic POPE/POPG (6:4) in PBS buffer at pH 7.4 incubated for 5 hrs in presence of 1,3-bis(8-carbamimidamidooctyl)-1,3-bis({8-[N'-(cyclopropylmethyl)carbamimidamido]octyl})urea by PAMPA based UV-Vis spectrophotometric analysis
[17] = Apparent permeability of the compound across bacterial inner membrane mimic pure POPG in PBS buffer at pH 7.4 incubated for 5 hrs in presence of {8-[N'(cyclopropylmethyl)carbamimidamido]octyl}urea trifluoroacetate salt by PAMPA based UV-Vis spectrophotometric analysis
[18] = as §2, with “1,3,3-tris(8-carbamimidamidooctyl)-1-{8-[N'-(cyclopropylmethyl)carbamimidamido]octyl}urea” for “{8-[N'(cyclopropylmethyl)carbamimidamido]octyl}urea”

Q: With `O=C(N[C@H](CO)[C@H](O)c1ccc([N+](=O)[O-])cc1)C(Cl)Cl` [CHLORAMPHENICOL] as the molecule, how does the Papp at 5 h [1] read?
A: 1.67 ×10⁻⁶ cm/s

Q: What about the Papp at 5 h [2] of the same molecule?
A: 0.04 ×10⁻⁶ cm/s

Q: And the Papp at 5 h [3]?
A: 3.39 ×10⁻⁶ cm/s

Q: And the Papp at 5 h [4]?
A: 2.18 ×10⁻⁶ cm/s

Q: And the Papp at 5 h [5]?
A: 3.14 ×10⁻⁶ cm/s

Q: And the Papp at 5 h [6]?
A: 0.54 ×10⁻⁶ cm/s

Q: And the Papp at 5 h [7]?
A: 8.73 ×10⁻⁶ cm/s

Q: And the Papp at 5 h [8]?
A: 1.12 ×10⁻⁶ cm/s

Q: And the Papp at 5 h [9]?
A: 3.78 ×10⁻⁶ cm/s

Q: What about the Papp at 5 h [10] of the same molecule?
A: 6.64 ×10⁻⁶ cm/s

Q: And the Papp at 5 h [11]?
A: 6.11 ×10⁻⁶ cm/s

Q: What about the Papp at 5 h [12] of the same molecule?
A: 6.98 ×10⁻⁶ cm/s

Q: And the Papp at 5 h [13]?
A: 0.06 ×10⁻⁶ cm/s

Q: And the Papp at 5 h [14]?
A: 6.12 ×10⁻⁶ cm/s

Q: And the Papp at 5 h [15]?
A: 3.24 ×10⁻⁶ cm/s

Q: What about the Papp at 5 h [16] of the same molecule?
A: 1.39 ×10⁻⁶ cm/s

Q: What about the Papp at 5 h [17] of the same molecule?
A: 0.08 ×10⁻⁶ cm/s

Q: What about the Papp at 5 h [18] of the same molecule?
A: 4.67 ×10⁻⁶ cm/s
